The source made the active and inactive calls.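 How the source made its calls: active means mean IC50 of 20 µM or lower in the 6 hour cytotoxicity test; inactive means the rest.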 A value given as a limit tells only on which side of the number the result lay.

The assay has as its system CHO-XBP1 cytotoxicity, ATPlite luminescence, 6 h. Kind of assay: CHO-XBP1 cell viability loss – 6 h exposure, ATPlite luminescence, cytotoxicity control for UPR adaptive arm activator project, SAR follow-up (AID 588569).
Regarding `O=C(Nc1ccc(Br)c(C(F)(F)F)c1)c1cc(-c2ccncc2)nc2ccccc12`, the IC50 was > 80 µM (inactive). For the compound `O=C(Nc1ccc(F)cc1)c1cc(-c2ccncc2)nc2ccccc12`, the IC50 was > 80 µM (inactive). As for `Cc1nc(Nc2nc(-c3ccccc3)cc(=O)[nH]2)nc2ccccc12`, the figure is 36.4 µM (inactive).

Turning to `O=C(Nc1ccc(C(F)(F)F)cc1)c1cc(-c2ccncc2)nc2ccccc12`, the IC50 is 70.4 µM (inactive).

In the case of `Cc1cc(Br)cc(NC(=O)c2cc(-c3ccncc3)nc3ccccc23)c1`, the IC50 was > 80 µM (inactive). As for `O=C(Nc1ccc(Cl)cc1)c1cc(-c2ccncc2)nc2ccccc12`, the figure is 75.4 µM (inactive). As for `Cc1ccc(NC(=O)c2cc(-c3ccncc3)nc3ccccc23)cc1`, the figure is > 80 µM (inactive).

The record behind these values is PubChem BioAssay AID588569 (Sanford-Burnham Center for Chemical Genomics, 2011).
